The compounds below were run against Carbonic anhydrase 9 (Homo sapiens, UniProt Q16790) (assay: Inhibition of human carbonic anhydrase 9 preincubated for 15 mins by stopped flow CO2 hydration assay).

Row | Structure (SMILES) | Ki [nM]
1 | Cc1ccc(S(=O)(=O)NNC(=O)Nc2ccc(S(N)(=O)=O)cc2)cc1 | 24
2 | NS(=O)(=O)c1ccc(NC(=O)NNS(=O)(=O)c2ccc(F)cc2)cc1 | 25.1
3 | CC(=O)Nc1ccc(S(=O)(=O)NNC(=O)Nc2ccc(S(N)(=O)=O)cc2)cc1 | 81.3
4 | COc1ccc(S(=O)(=O)NNC(=O)Nc2ccc(S(N)(=O)=O)cc2)cc1 | 80.4
5 | NS(=O)(=O)c1ccc(NC(=O)NNS(=O)(=O)c2ccc(Cl)c([N+](=O)[O-])c2)cc1 | 38.7
6 | NS(=O)(=O)c1ccc(NC(=O)NNS(=O)(=O)c2ccc(Br)cc2)cc1 | 30.4
7 | NS(=O)(=O)c1ccc(NC(=O)NNS(=O)(=O)c2ccccc2)cc1 | 73.9
8 | NS(=O)(=O)c1ccc(NC(=O)NNS(=O)(=O)c2ccc([N+](=O)[O-])cc2)cc1 | 20.5
9 | NS(=O)(=O)c1ccc(NC(=O)NNS(=O)(=O)c2ccc(Cl)cc2)cc1 | 23.1
